Test results published in the CheMixHub viscosity set.
Values joined by “and” are separate entries in the source; they are usually repeats but may differ in a detail not shown here. Equal values may be shown once.

Legend:
[1] = xn = mol fraction of the nth substance listed

CCCCCO
Conditions	viscosity
293.15 K, 100 kPa	4.057 mPa·s and 4.155 mPa·s and 3.964 mPa·s
293.15 K, 101 kPa	3.939 mPa·s and 3.99 mPa·s and 4.06 mPa·s
293.15 K, 101.33 kPa	3.675 mPa·s and 4.109 mPa·s and 4.109 mPa·s
298.15 K, 100 kPa	3.512 mPa·s and 3.595 mPa·s
298.15 K, 101.3 kPa	3.302 mPa·s
303.15 K, 101.3 kPa	3 mPa·s and 2.832 mPa·s
308.15 K, 101.3 kPa	2.449 mPa·s
313.15 K, 101.3 kPa	2.3 mPa·s and 2.344 mPa·s
318 K, 101.3 kPa	2.075 mPa·s
318.15 K, 100 kPa	2.085 mPa·s
318.15 K, 101.3 kPa	2.066 mPa·s
323 K, 101.3 kPa	1.853 mPa·s
323.15 K, 101 kPa	1.784 mPa·s

CCI
Conditions	viscosity [mPa·s]
298.15 K, 101 kPa	0.577

c1ccccc1
Conditions	viscosity
293.15 K, 100 kPa	0.641 mPa·s and 0.656 mPa·s
293.15 K, 101 kPa	0.644 mPa·s and 0.629 mPa·s and 0.646 mPa·s
293.15 K, 101.33 kPa	0.645 mPa·s and 0.645 mPa·s
293.16 K, 101 kPa	0.652 mPa·s
294.35 K, 101.33 kPa	0.6559 mPa·s
298 K, 101 kPa	0.6139 mPa·s
298 K, 101.33 kPa	0.596 mPa·s
298.15 K, 100 kPa	0.6121 mPa·s
298.15 K, 101.3 kPa	0.609 mPa·s
303.15 K, 101.32 kPa	0.576 mPa·s
303.95 K, 101.33 kPa	0.5989 mPa·s
304.85 K, 101.33 kPa	0.5927 mPa·s
307.35 K, 101.33 kPa	0.53 mPa·s
307.4 K, 101.33 kPa	0.309 mPa·s
312.95 K, 101.33 kPa	0.5173 mPa·s
313 K, 101 kPa	0.4925 mPa·s and 0.4923 mPa·s and 0.4923 mPa·s
313 K, 101.33 kPa	0.489 mPa·s
313.15 K, 100 kPa	0.491 mPa·s
313.25 K, 101.33 kPa	0.5324 mPa·s
318 K, 101 kPa	0.4788 mPa·s
318 K, 101.3 kPa	0.4765 mPa·s
318.15 K, 101.33 kPa	0.553 mPa·s and 0.553 mPa·s
322.75 K, 101.33 kPa	0.4749 mPa·s
322.85 K, 101.33 kPa	0.4803 mPa·s
323.15 K, 100 kPa	0.435 mPa·s
323.15 K, 101 kPa	0.438 mPa·s and 0.4367 mPa·s and 0.434 mPa·s

CCCCCCCCCCCCCCCCCCC
Conditions	viscosity [mPa·s]
313.15 K, 101 kPa	3.49

CN(C)C=O + CCO
viscosity [mPa·s], [1], 101 kPa
Conditions	293.15 K	298.15 K	303.15 K	313.15 K	323.15 K
x1 = 0.3863	–	0.881	–	–	–
x1 = 0.5	–	–	0.758	0.649	0.563
x2 = 0.0999	0.871	0.819	0.77	0.682	0.61
x2 = 0.2	0.876	0.818	0.767	0.68	0.604
x2 = 0.3	0.882	0.822	0.77	0.681	0.603
x2 = 0.4	0.881	0.821	0.767	0.674	0.596
x2 = 0.5001	0.872	0.813	0.759	0.668	0.592
x2 = 0.6	0.886	0.825	0.769	0.67	0.59
x2 = 0.7	0.919	0.852	0.791	0.685	0.598
x2 = 0.8	0.97	0.897	0.828	0.712	0.616
x2 = 0.9001	1.067	0.977	0.897	0.762	0.651

CCCCCCC + CCCCO
viscosity [mPa·s], [1]
Conditions	298.15 K	308.15 K
100 kPa, x2 = 0.1602	0.4667	–
100 kPa, x2 = 0.3421	0.6085	–
100 kPa, x2 = 0.5006	0.8545	–
100 kPa, x2 = 0.6598	1.191	–
100 kPa, x2 = 0.8398	1.747	–
101.33 kPa, x2 = 0.077	0.421	0.3698
101.33 kPa, x2 = 0.1523	0.456	0.392
101.33 kPa, x2 = 0.2853	0.5468	0.4571
101.33 kPa, x2 = 0.4094	0.667	0.5432
101.33 kPa, x2 = 0.5024	0.787	0.6232
101.33 kPa, x2 = 0.6136	0.9824	0.7769
101.33 kPa, x2 = 0.7055	1.204	0.9444
101.33 kPa, x2 = 0.7866	1.453	1.136
101.33 kPa, x2 = 0.8595	1.751	1.363
101.33 kPa, x2 = 0.8998	1.942	1.515
101.33 kPa, x2 = 0.9352	2.144	1.666
101.33 kPa, x2 = 0.9675	2.342	1.821

CN(C)C=O
Conditions	viscosity
293.15 K, 100 kPa	0.855 mPa·s
293.15 K, 101.33 kPa	0.9248 mPa·s and 0.88 mPa·s
298.15 K, 100 kPa	0.82 mPa·s and 0.843 mPa·s
298.15 K, 101.3 kPa	0.792 mPa·s
298.15 K, 101.33 kPa	0.83 mPa·s
302.15 K, 101 kPa	1.032 mPa·s
303 K, 101.33 kPa	0.758 mPa·s
303.15 K, 101.3 kPa	0.7675 mPa·s and 0.7524 mPa·s
303.15 K, 101.33 kPa	0.78 mPa·s
305.15 K, 101 kPa	0.979 mPa·s
308 K, 101.33 kPa	0.721 mPa·s
308.15 K, 100 kPa	0.729 mPa·s and 0.718 mPa·s
308.15 K, 101.3 kPa	0.7077 mPa·s
308.15 K, 101.33 kPa	0.74 mPa·s
313.15 K, 100 kPa	0.687 mPa·s and 0.688 mPa·s
313.15 K, 101.3 kPa	0.6644 mPa·s
313.15 K, 101.33 kPa	0.7143 mPa·s and 0.7 mPa·s
318 K, 101.3 kPa	0.6348 mPa·s
318 K, 101.33 kPa	0.6348 mPa·s
318.15 K, 100 kPa	0.652 mPa·s
318.15 K, 101.33 kPa	0.67 mPa·s
323.15 K, 101.33 kPa	0.63 mPa·s
